Laboratory results published in patent publication US20240317762A1, “PHTHALAZINONE-BASED PARP-1 INHIBITORS” (Oregon Health & Science University, priority 2021, published 2024).
pEC50, pIC50: −log10 of the molar value.

Key:
PARP-1 [1] = biological target: T1, PARP-1 (Homo sapiens, UniProt P09874); assay: in vitro PARP-1 auto-PARylation assay (SRPK2 plate assay); type: biochemical; set-up: The full-length WT PARP-1 protein used in these assays; made in house; details: read-out: IC50 against PARP-1 catalytic activity (auto-PARylation)
T1 sequence (P09874 whole entry): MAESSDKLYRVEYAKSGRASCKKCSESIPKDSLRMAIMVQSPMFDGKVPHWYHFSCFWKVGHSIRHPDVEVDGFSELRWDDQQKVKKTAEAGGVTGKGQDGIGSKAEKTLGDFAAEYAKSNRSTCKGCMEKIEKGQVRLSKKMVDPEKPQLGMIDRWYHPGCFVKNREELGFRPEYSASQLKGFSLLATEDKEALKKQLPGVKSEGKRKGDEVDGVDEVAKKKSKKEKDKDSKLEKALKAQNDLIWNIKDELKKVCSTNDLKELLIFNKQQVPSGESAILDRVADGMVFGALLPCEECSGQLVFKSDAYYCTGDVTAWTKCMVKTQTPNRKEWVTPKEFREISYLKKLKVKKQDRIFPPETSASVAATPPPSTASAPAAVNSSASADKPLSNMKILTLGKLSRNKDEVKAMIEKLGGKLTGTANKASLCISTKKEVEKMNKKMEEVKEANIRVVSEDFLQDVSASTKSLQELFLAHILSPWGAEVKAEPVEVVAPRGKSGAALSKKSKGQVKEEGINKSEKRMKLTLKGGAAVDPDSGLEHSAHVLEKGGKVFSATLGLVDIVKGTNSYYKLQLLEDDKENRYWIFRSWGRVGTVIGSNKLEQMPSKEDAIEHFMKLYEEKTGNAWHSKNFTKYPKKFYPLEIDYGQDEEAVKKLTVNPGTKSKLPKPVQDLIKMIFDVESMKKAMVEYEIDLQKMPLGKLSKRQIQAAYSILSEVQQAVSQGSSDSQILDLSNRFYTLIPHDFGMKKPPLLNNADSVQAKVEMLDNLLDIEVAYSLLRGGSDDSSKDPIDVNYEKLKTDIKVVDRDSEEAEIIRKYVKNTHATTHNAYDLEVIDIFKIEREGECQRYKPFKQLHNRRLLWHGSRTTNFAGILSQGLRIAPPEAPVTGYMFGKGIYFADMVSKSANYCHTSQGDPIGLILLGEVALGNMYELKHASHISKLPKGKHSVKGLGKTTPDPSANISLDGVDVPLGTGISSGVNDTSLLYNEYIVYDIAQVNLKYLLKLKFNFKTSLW
Protocol: IC50 SRPK2 Plate Assays were performed as previously described (21). Log(inhibitor) versus response curves were fit using non-linear regression with variable slope. Mean IC50 values for each compound were derived from a minimum of three separate replicates.

HEK 293T cells [2] = assay: analysis of cell cycle (DAPI, flow cytometry)
Protocol: After the indicated treatments, cells were washed twice with 1× PBS, trypsinized off of the plate, and washed an additional 2 times with 1×PBS. Cells were then permeabilized using 70% cold ethanol while vortexing before incubating for 30 min at 4° C. Cells were then washed three times with 1×PBS and counted using a hemocytometer to create a final pellet of 1×10^6 cells in for each inhibitor condition. 500 μl of DAPI solution (1 μg/ml DAPI, 0.1% Triton X-100 in PBS) was added to each cell pellet and incubated on ice for 30 min before being analyzed by flow cytometry using a BD Canto II. All data was analyzed on FlowJo software, gating for 20,000 singlet events. Manual cell cycle gates were set onto the DMSO control data using Watson modeling as reference. These gates were applied to all treatment conditions to obtain quantitative analysis.
Error bars represent SEM. […] Caspase-Glo 3/7 reagent was added to each well and luminescence was read after 30 minutes. […] Error bars represent SEM. […] Cell cycle was analyzed by flow cytometry (20,000 singlet events) and cell cycle statistics were calculated in FlowJo software against DMSO Watson modeling (n=3). FIG. 3F) DNA synthesis was measured using EdU incorporation. […] EdU incorporation was labelled using TAMRA azide click-chemistry and imaged at 20×. Mean intensity of TAMRA signal within DAPI masks analyzed using Zen software (n>3900 cells over 2 replicates). Values are normalized to the average DMSO control within each replicate. Error bars represent SEM. Statistical significance calculated via one-way ANOVA with Tukey's multiple comparisons test (p<0.05).

HEK 293T cells [3] = assay: DNA synthesis assay (EdU incorporation); type: cell-based, human; details: 1 μM, 18 hours, then 10 μM EdU 1.5 hours
Protocol: HEK 293T cells were seeded onto poly-d-lysine treated glass coverslips. […] After incubation, cells were treated with 10 μM EdU (5-ethynyl-2′-deoxyuridine) for 1.5 hours and subsequently fixed with 4% Sucrose/4% Paraformaldehyde in PBS for 15 minutes at RT. Cells were washed 2× with 3% BSA in PBS and permeabilized with 0.3% Triton X-100 in PBS for 20 minutes at RT. After two additional 3% BSA in PBS washes, coverslips were incubated with 500 μl Click-iT reaction cocktail [1× Click-iT reaction buffer, 2 mM CuSO4, 5 μM TAMRA Azide, Reaction buffer additive] for 30 minutes at room temperature (RT) protected from the light. Cells were washed once more with 3% BSA in PBS and twice more with 1×PBS before being mounted using ProLong Gold antifade reagent with DAPI (Invitrogen). All immunofluorescence images were taken on a Zeiss ApoTome2 on Axiolmager and analyzed using Zeiss software. Mean intensity of the TAMRA signal was measured after imposing DAPI masks over the nucleus of each cell. All cells within a 20× image, was analyzed (˜3000 cells/condition).
(§1) Error bars represent SEM. […] Error bars represent SEM. […] Error bars represent SEM.

[4] = test system: Ser345 phosphorylation of Chk1 in HEK 293 cells; assay: western blot analysis of phosphorylation of Chk1; details: HEK 293 cells, 18 hours
HEK 293 PARP-1 KO cells = assay: cell proliferation (MTT) assay in PARP-1 KO cells; type: cell-based, human; details: PARP-1 KO vs control HEK 293 cells, MTT 72 h
Excerpt: as §1

PARP-1 [5] = biological target: T1, PARP-1; assay: PARP-1 auto-PARylation activity assay in cells; type: cell-based
Protocol: Cells were washed with PBS, and lysed in RIPA buffer (50 mM Tris-HCl [pH 8.0], 150 mM NaCl, 0.1% SDS, 1% Triton X-100, 1× cOmplete™ protease inhibitors (Roche), and 1 μM Veliparib). […] Following quantification, 4× Laemmli sample buffer with 5% β-mercaptoethanol was added to 25-50 μg of protein.
Membrane blots were blocked with 5% milk-PBST for 1 h at RT, followed by incubation with a rabbit pan-ADP-ribose binding reagent (Cell Signaling), a rabbit PARP-1 antibody (Bethyl Laboratories), or a mouse b-actin antibody (Santa Cruz Biotechnology) for 2 h at RT, followed by incubation with HRP-conjugated secondary antibodies. […] Blots were imaged for chemiluminescent signal on a ChemiDoc MP system (BioRad). Statistical significance was established through multiple unpaired t-tests with nonlinear regression fit analysis.
FIGS. 5A-5F. […] An unlabeled competitor was added and the decrease in fluorescence polarization was measured across time. […] Error bars represent SEM. […] Error bars represent SEM. […] Cells were subsequently lysed using RIPA buffer, run out on SDS-PAGE, and probed for ADPr (Cell Signaling) and PARP-1 (Bethyl Laboratories). FIG. 5F) Quantification of western blot images. ADPr values are normalized to PARP-1 within each replicate and plotted as percentage compared to DMSO. Error bars indicate SEM (n=3).

[6] = test system: caspase-3/7 activity in HEK 293 cells; assay: cell apoptosis assay (Caspase-Glo 3/7); type: cell-based, human; details: 1 μM, 72 hours
Protocol: HEK 293 or HEK 293 PARP-1 KO cells were seeded in a 96 well plate at 1000-2000 cells per well, a media only “blank” was also included. Following an overnight incubation, cells were treated with 1 μM of indicated inhibitors. “Blank” wells were treated with DMSO. Following a 72 hour inhibitor treatment, the Caspase-Glo 3/7 Assay was completed following the manufacturer instructions (Promega, #G8091). Luminescence was read on a SpectraMax i3 plate reader (Molecular Devices).
as §1

D770A PARP-1 = D770A PARP-1 (Homo sapiens, UniProt P09874, D770A); assay: catalytic activity of PARP-1 mutant expressed in HEK 293 cells, D770A; type: biochemical; details: 3 μM AZ0108
Sequence of D770A PARP-1 (P09874 whole entry D770A): as the sequence (P09874 whole entry) above, with D770A counted along it

HEK 293T cells [7] = assay: neutral comet assay; type: cell-based, human; details: 1 μM overnight, compared to bleomycin
Excerpt: Cells were washed with 1×PBS, trypsinized, resuspended in a 1000,000 cells/ml 1×PBS solution, and mixed with molten agarose 1:2. The agarose mixture was placed onto CometSlides and the comet assay was completed following the manufacturer instructions (Trevigen, 4250-050-K). DNA was stained using SYBR Green and slides were imaged on a Zeiss ApoTome2 on Axiolmager using a 10× objective (>100 cells/condition).

PARP-1 [8] = biological target: T1, PARP-1; assay: in vitro fluorescence polarization DNA competition assay; details: 25 μM compound; PARP-1 40 nM; nicked dumbbell DNA probe 20 nM
Excerpt: The full-length WT PARP-1 protein used in these assays was purified as described previously (30).

R878A PARP-1 = R878A PARP-1 (Homo sapiens, UniProt P09874, R878A); assay: catalytic activity of PARP-1 mutant expressed in HEK 293 cells, R878A; type: biochemical; details: 3 μM AZ0108
Sequence of R878A PARP-1 (P09874 whole entry R878A): as the sequence (P09874 whole entry) above, with R878A counted along it

Work on “(S)-4-(difluoro(3-(6-methyl-3-(trifluoromethyl)-5,6,7,8-tetrahydro-[1,2,4]triazolo[4,3-a]pyrazine-7-carbonyl)phenyl)methyl)phthalazin-1(2H)-one [AZ0108]” yielded a pIC50 (PARP-1 [1]) of 7.92, a G1 (HEK 293T cells [2]; DAPI intensity, 18 hours) of 9.31% and a G2 (HEK 293T cells [2]; DAPI intensity, 18 hours) of 9.65%. For the same substance, the S (HEK 293T cells [2]; DAPI intensity, 18 hours) was 77.4%, the “effect on cell cycle” value (HEK 293T cells [2]; FACS, DAPI fluorescence) was “arrested HEK 293 cells in S-phase” and the “block of EdU incorporation” value (HEK 293T cells [3]) was 65%. The “Ser345 phosphorylation of Chk1” value [4] was “induced Ser345 phosphorylation of Chk1”, the “increase in the EC50 value on cell growth by KO of PARP-1” value (HEK 293 PARP-1 KO cells) was 43 fold and the pEC50 (PARP-1 [5]; 30 min inhibitor, then PARG inhibitor PDD00017273, read-out: EC50 inhibiting PARP-1 PARylation in HEK 293 cells) was 7.37. The pIC50 (PARP-1 [5]; FIG. 5F, nonlinear regression, read-out: IC50 of dose curves, quantification of western blot (ADPr normalized to PARP-1)) was 7.37, the “reduction of caspase-3/7 activity” value [6] was 75% and the “inhibition of D770A PARP-1 activity” value (D770A PARP-1) was “inhibited”. The “double-strand breaks (DSBs)” value (HEK 293T cells [7]) was “only weakly generated DSBs”, the “exchange of the PARP-1:labled DNA complex with an unlabeled DNA competitor” value (PARP-1 [8]) was “substantially reduced” and the “inhibition of R878A PARP-1 activity” value (R878A PARP-1) was “inhibited”.
